Measurements as given in patent publication US11426397B2, “Piperidinyl- and piperazinyl-substituted heteroaromatic carboxamides as modulators of GPR6” (TAKEDA PHARMACEUTICAL COMPANY LIMITED, priority 2017, dated 2022).

biological target: T1, GPR6 receptor expressed in CHO-K1 cells (Homo sapiens, UniProt P46095); assay: In vitro inhibition of cAMP (EC50), cell-based HTRF cAMP assay; conditions: inhibition of constitutive cAMP activity of GPR6 in CHO-K1 cells
T1 construct: expressed in transfected cells
In short: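 Cellular cAMP measured by Lance Ultra HTRF (Eu-cAMP tracer, ULight anti-cAMP), with EC50 fitted by four-parameter logistic. Test compounds sat on cells 45 min, 37 °C, in pH 7.4 Ringer's with 300 μM IBMX and 0.5% BSA; GPR6 in CHO-K1 induced beforehand by doxycycline, 2 μg/mL, 20 h.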

T1 sequence (P46095 whole entry): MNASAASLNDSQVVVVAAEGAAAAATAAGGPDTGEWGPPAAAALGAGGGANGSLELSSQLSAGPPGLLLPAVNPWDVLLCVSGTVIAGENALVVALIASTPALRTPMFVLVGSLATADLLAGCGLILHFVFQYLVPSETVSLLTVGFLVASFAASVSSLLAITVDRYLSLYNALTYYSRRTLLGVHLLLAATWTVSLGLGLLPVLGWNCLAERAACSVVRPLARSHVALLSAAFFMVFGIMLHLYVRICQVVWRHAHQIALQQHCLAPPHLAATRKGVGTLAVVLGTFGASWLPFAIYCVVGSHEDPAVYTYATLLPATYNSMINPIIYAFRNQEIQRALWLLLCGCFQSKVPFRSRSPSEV

| SMILES | pEC50, in vitro inhibition of cAMP |
| --- | --- |
| COc1ncccc1C(=O)Nc1cc(C#N)ncc1N1CCC(Oc2ccc(F)cc2F)CC1 [Example 261, N-(2-cyano-5-(4-(2,4-difluorophenoxy)piperidin-1-yl)pyridin-4-yl)-2-methoxynicotinamide] | 7.2 |
| COc1ccncc1C(=O)Nc1cc(C(=O)N(C)C)ncc1N1CCC(Oc2ccc(F)cc2F)CC1 [Example 262, 5-(4-(2,4-difluorophenoxy)piperidin-1-yl)-4-(4-methoxynicotinamido)-N,N-dimethylpicolinamide] | 7.3 |
| COc1ccncc1C(=O)Nc1cnc(C)cc1N1CCC(Oc2ccc(F)cc2F)CC1 [Example 263] | 7.1 |
| COc1ncccc1C(=O)Nc1cnccc1N1CCC(Oc2ccc(F)cc2F)CC1 [Example 264] | 6.8 |
| COc1ncccc1C(=O)Nc1cc(C(=O)N(C)C)ccc1N1CCC(Oc2ccc(F)cc2F)CC1 [Example 265] | 6.7 |
| COc1nn(C)cc1C(=O)Nc1cc(C#N)ncc1N1CCN(Cc2ccc(F)c(F)c2F)CC1 [Example 266, N-(2-cyano-5-(4-(2,3,4-trifluorobenzyl)piperazin-1-yl)pyridin-4-yl)-3-methoxy-1-methyl-1H-pyrazole-4-carboxamide] | 6.8 |
| COc1nn(C)cc1C(=O)Nc1cc(C#N)ncc1N1CCN(Cc2cc(F)c(F)c(F)c2)CC1 [Example 267, N-(2-cyano-5-(4-(3,4,5-trifluorobenzyl)piperazin-1-yl)pyridin-4-yl)-3-methoxy-1-methyl-1H-pyrazole-4-carboxamide] | 6.4 |
| COCc1cc(N2CCC(Oc3ccc(F)cc3F)CC2)c(NC(=O)c2cccnc2OC)cn1 [Example 268] | 6.9 |
| COc1ncccc1C(=O)Nc1cnc(C(N)=O)cc1N1CCC(Oc2ccc(F)cc2F)CC1 [Example 269, 4-(4-(2,4-difluorophenoxy)piperidin-1-yl)-5-(2-methoxynicotinamido)picolinamide] | 6.9 |
| COc1ncccc1C(=O)Nc1cnc(C#N)cc1N1CCC(Oc2ccc(F)cc2F)CC1 [Example 270, N-(6-cyano-4-(4-(2,4-difluorophenoxy)piperidin-1-yl)pyridin-3-yl)-2-methoxynicotinamide] | 6.9 |
| COc1ncccc1C(=O)Nc1cc(C#N)c(C#N)cc1N1CCC(Oc2ccc(F)cc2F)CC1 [Example 271] | 7.1 |
| COc1ncccc1C(=O)Nc1cc(C(=O)N(C)C)c(C#N)cc1N1CCC(Oc2ccc(F)cc2F)CC1 [Example 272] | 7.4 |
| COc1ncccc1C(=O)Nc1cc(C#N)c(C(=O)N(C)C)cc1N1CCC(Oc2ccc(F)cc2F)CC1 [Example 273] | 7.3 |
| N#Cc1ccc(N2CCC(Oc3ccc(F)cc3F)CC2)c(NC(=O)c2ccc[nH]c2=O)c1 [Example 274] | 7.0 |
| N#Cc1ccc(N2CCC(Oc3ccc(F)cc3F)CC2)c(NC(=O)c2ccccc2O)c1 [Example 275, N-(5-cyano-2-(4-(2,4-difluorophenoxy)piperidin-1-yl)phenyl)-2-hydroxybenzamide] | 6.5 |
| N#Cc1ccc(N2CCC(Oc3ccc(F)cc3F)CC2)c(NC(=O)c2cccnc2OC(F)F)c1 [Example 276, N-(5-cyano-2-(4-(2,4-difluorophenoxy)piperidin-1-yl)phenyl)-2-(difluoromethoxy)nicotinamide] | 7.3 |

| SMILES | pEC50, in vitro inhibition of cAMP |
| --- | --- |
| N#Cc1ccc(N2CCC(Oc3ccc(F)cc3F)CC2)c(NC(=O)c2cccn(C(F)F)c2=O)c1 [Example 277, N-(5-cyano-2-(4-(2,4-difluorophenoxy)piperidin-1-yl)phenyl)-1-(difluoromethyl)-2-oxo-1,2-dihydropyridine-3-carboxamide] | 6.5 |
| COc1nc(C)ncc1C(=O)Nc1cc(C#N)ccc1N1CCC(Oc2ccc(F)cc2F)CC1 [Example 278] | 7.4 |
| Cn1cccc(C(=O)Nc2cc(S(=O)(=O)N3CCOCC3)cnc2N2CCC(Oc3ccc(F)cc3F)CC2)c1=O [Example 279, N-(2-(4-(2,4-difluorophenoxy)piperidin-1-yl)-5-(morpholinosulfonyl)pyridin-3-yl)-1-methyl-2-oxo-1,2-dihydropyridine-3-carboxamide] | 7.0 |
| COc1nc(C)ccc1C(=O)Nc1cnc(C#N)nc1N1CCC(Oc2ccc(F)cc2F)CC1 [Example 280, N-(2-cyano-4-(4-(2,4-difluorophenoxy)piperidin-1-yl)pyrimidin-5-yl)-2-methoxy-6-methylnicotinamide] | 7.1 |
| COc1ncccc1C(=O)Nc1cnc(C(=O)N(C)C)nc1N1CCC(Oc2ccc(F)cc2F)CC1 [Example 281, 4-(4-(2,4-difluorophenoxy)piperidin-1-yl)-5-(2-methoxynicotinamido)-N,N-dimethylpyrimidine-2-carboxamide] | 6.4 |
| COc1ncccc1C(=O)Nc1cc(C#N)nnc1N1CCC(Oc2ccc(F)cc2F)CC1 [Example 282, N-(6-cyano-3-(4-(2,4-difluorophenoxy)piperidin-1-yl)pyridazin-4-yl)-2-methoxynicotinamide] | 7.2 |
| COc1ccc(C(=O)N2CCN(c3ccc(C#N)cc3NC(=O)c3cccnc3OC)CC2)c(F)c1 [Example 284, N-(5-cyano-2-(4-(2-fluoro-4-methoxybenzoyl)piperazin-1-yl)phenyl)-2-methoxynicotinamide] | 6.6 |
| COc1ncccc1C(=O)Nc1cc(C#N)ccc1N1CCN(C(=O)c2ccc(Cl)cc2)CC1 [Example 285, N-(2-(4-(4-chlorobenzoyl)piperazin-1-yl)-5-cyanophenyl)-2-methoxynicotinamide] | 6.9 |
| COc1ncccc1C(=O)Nc1cc(C#N)ccc1N1CCN(C(=O)c2ccc(F)cc2)CC1 [Example 286, N-(5-cyano-2-(4-(4-fluorobenzoyl)piperazin-1-yl)phenyl)-2-methoxynicotinamide] | 6.7 |
| COc1ncccc1C(=O)Nc1cc(C#N)ccc1N1CCN(S(=O)(=O)c2ccc(F)cc2)CC1 [Example 287, N-(5-cyano-2-(4-((4-fluorophenyl)sulfonyl)piperazin-1-yl)phenyl)-2-methoxynicotinamide] | 6.2 |
| COc1ncccc1C(=O)Nc1cc(C#N)ccc1N1CCN(C(C)c2ccc(F)cc2)CC1 (centres unmarked) [Example 288] | 6.0 |
| COc1ncccc1C(=O)Nc1cnc(C(F)(F)F)cc1N1CCC(Oc2ccc(F)cc2F)CC1 [Example 289] | 6.9 |
| COc1ncccc1C(=O)Nc1cc(C#N)ccc1N1CCN(Cc2ncc(F)cc2F)CC1 [Example 290] | 6.5 |
| COc1ncccc1C(=O)Nc1cc(C#N)ccc1N1CCN(Cc2ccc(F)cc2C#N)CC1 [Example 291, N-(5-cyano-2-(4-(2-cyano-4-fluorobenzyl)piperazin-1-yl)phenyl)-2-methoxynicotinamide] | 6.9 |
| Cn1cccc(C(=O)Nc2cc(C#N)ccc2N2CCC(Oc3cc(F)cnc3F)CC2)c1=O [Example 292, N-(5-cyano-2-(4-((2,5-difluoropyridin-3-yl)oxy)piperidin-1-yl)phenyl)-1-methyl-2-oxo-1,2-dihydropyridine-3-carboxamide] | 6.6 |
| Cn1cccc(C(=O)Nc2cc(C#N)ccc2N2CCC(Oc3ncc(F)cc3F)CC2)c1=O [Example 293, N-(5-cyano-2-(4-((3,5-difluoropyridin-2-yl)oxy)piperidin-1-yl)phenyl)-1-methyl-2-oxo-1,2-dihydropyridine-3-carboxamide] | 6.6 |
